Laboratory results reported in US20080214844A1, “Icaritin and desmethylicaritin as anti-cancer agents” (priority 2007, published 2008).

What was measured:
HMVEC tube formation = HMVEC tube formation on Matrigel; format: cell-based, human; conditions: 18 hours
Experimental: Endothelial cell tube formation in Matrigel is one measure of angiogenesis in vitro. The role of Icaritin in angiogenesis was assessed by determining the inhibition of HMVEC tube formation on Matrigel matrix plated onto 96-well plates. The HMVEC tube formation assay was performed as described previously. Briefly, 96-well plates were coated with 90 μL Matrigel (10 mg/mL, Collaborative Research) and incubated at 37° C. for 30 minutes to promote gelling. HMVECs (10,000 cells/sample) were resuspended in reduced growth medium (serum concentration 1% and 5 units/mL heparin) and added to each well with the indicated reagents in a final volume of 100 μL with different concentration of Icaritin. After 18 hours, the plates were fixed with Diff-Quik and at least four randomly selected fields per experimental condition were digitally recorded under bright-field illumination using a 10× objective. The mean additive length of all of the cords present in each optical field was measured using IPLab software and compared with controls using the Student's unpaired t test.

Jurkat T cell = assay: MTT cell viability assay, Jurkat T cell; format: cell-based, human; conditions: Homo sapiens, 72 h, Leukemia, 3 days culture
Experimental: (§1) 26 cancer cell lines were grown in normal growth medium in the presence of different concentrations Icaritin or Desmethylicaritin. After culture for 3 days, the cell viability was then measured by an MTT assay. […] Some EC50s were lower than 10 uM for these two compounds. […] Whereas, normal human mammary gland epithelial cells (MCF10A) were not sensitive to Icaritin and Desmethylicaritin. These cells grew well when treated with these two compounds at a concentration of 50 uM.

[1] = test system: LNCaP cells and MDA-MB-231 cells; assay: Synthesis of lipid classes in cancer cells; format: cell-based, human
Experimental: Icaritin and Desmethylicaritin decrease Lipogenesis in Prostate and Breast Cancer cells via inhibition of fatty acid synthase (FAS) Activity. Protein extracts from LNCaP cells, which had been ^14C-labeled with malonyl-CoA, were pretreated with these two compounds. A concentration of 0.5 μM Icaritin or Desmethylicaritin reduced the in vitro enzymatic FAS activity to less than 50%. […] Consistent with their FAS inhibitory effect, inhibition of lipogenesis by Icaritin and Desmethylicaritin affected the synthesis of phospholipids (including phosphatidylcholine, phosphatidylethanolamine, phosphatidylinositol, phosphatidylserine, and sphingomyelin) and of triglycerides in LNCaP cells and MDA-MB-231 cells. […] Cholesterol synthesis, however, accounts for less than 10% of the total lipogenic activity in LNCaP and MDA-MB-231 cancer cells, whereas ˜75 and 15% of the lipogenic activity in these cells represents phospholipid and triglyceride synthesis, respectively.

IGROV1 = assay: MTT cell viability assay, IGROV1; format: cell-based, human; conditions: Homo sapiens, IGROV-1, 72 h, IGROV1, Ovary, 3 days culture
Experimental: as §1

[2] = test system: LNCaP prostate cancer cells; assay: Lipogenesis: incorporation of 2-14C-labeled acetate into cellular lipids; format: cell-based; conditions: Homo sapiens, 5 h, 2-14C-acetate incorporation
Experimental: To investigate the ability of Icaritin and Desmethylicaritin to inhibit lipogenesis, LNCaP prostate cancer cells were treated with different concentrations of Icaritin and Desmethylicaritin for 5 h, and incorporation of 2-^14C-labeled acetate into cellular lipids was quantitated. Both of Icaritin and Desmethylicaritin inhibited lipogenesis by more than 50% at a concentration of 0.5 uM. Higher concentrations further reduced lipogenesis in a dose-dependent way. A further decline was observed after 24 h of exposure.

SKOV3 = assay: MTT cell viability assay, SKOV3; format: cell-based, human; conditions: Homo sapiens, SK-OV-3, 72 h, SKOV3, Ovary, 3 days culture
Experimental: as §1

HT29 = assay: MTT cell viability assay, HT29; format: cell-based, human; conditions: Homo sapiens, HT-29, 72 h, HT29, Colon, 3 days culture
Experimental: as §1

human prostate cancer = assay: Human prostate cancer xenograft model; format: in vivo
Text: ICA was extensively biotransformed and converted to at least three metabolites: Icariside II (molecule weight=514), Icaritin (molecule weight=368), and Desmethylicaritin (molecule weight=354). […] Icaritin and Desmethylicaritin have huge potentials to be developed as novel and broad anti cancer drugs.
FIG. 1. Response of Human Prostate tumor to treatment with Icaritin and Desmethyliciarityn.

CCL-247 = assay: MTT cell viability assay, CCL-247; format: cell-based, human; conditions: Homo sapiens, 72 h, CCL-247, Colon, 3 days culture
Experimental: as §1

MDA-MB-231 = assay: MTT cell viability assay, MDA-MB-231; format: cell-based, human; conditions: Homo sapiens, 72 h, MDA-MB-231, Breast, 3 days culture
Experimental: as §1

HCT-116 = assay: MTT cell viability assay, HCT-116; format: cell-based, human; conditions: Homo sapiens, 72 h, HCT-116, Colon, 3 days culture
Experimental: as §1

D145 = assay: MTT cell viability assay, D145; format: cell-based, human; conditions: Homo sapiens, 72 h, D145, Prostate, 3 days culture
Experimental: as §1

EC50 (HMVEC tube formation; Homo sapiens, HMVEC, read-out: EC50 to inhibit HMVEC tube formation): 5.8 µM
IC50 (Jurkat T cell): 5.1 µM
IC50 (SKOV3): 9.8 µM
IC50 (HT29): 15.3 µM
IC50 (MDA-MB-231): 5.3 µM
IC50 (HCT-116): 6.4 µM
Compound: COc1ccc(-c2oc3c(CC=C(C)C)c(O)cc(O)c3c(=O)c2O)cc1 [Icaritin]
HMVEC tube formation (HMVEC tube formation; 10 uM): completely inhibited
synthesis of cholesterol ([1]; LNCaP and MDA-MB-231 cells): decreased
synthesis of phospholipids and of triglycerides ([1]; LNCaP cells and MDA-MB-231 cells): affected
IC50 (IGROV1): 10.9 µM
inhibition at 0.5 µM [2]: > 50%
human prostate cancer cell growth in vivo (human prostate cancer): strongly inhibiting
IC50 (CCL-247): 16.5 µM
IC50 (D145): 9.3 µM
